The term IC50 denotes the concentration that inhibits the measured activity by half. Lower therefore signals higher potency. One may read the inhibition as the relative decrease from the control value, in per cent.

SMILES strings stand for the structures. The source made the active and inactive calls. No cut-off for these calls is given here.

Our source for the IC50, inhibition and Activity values is ChEMBL document CHEMBL3217428, “Synthesis and evaluation of novel 5-sulfonyl-indolin-2-ones as potent cytotoxic agents” (Medchemcomm, 2011).

Test [1] relates to A549. The test is described as follows: Cytotoxicity against human A549 cells. The format is functional, cell-based.
Test [2] is described as follows: Cytotoxicity against human SGC7901 cells. It is filed as functional, cell-based. Particulars: SGC-7901.
The nature of test [3]: Cytotoxicity against human ECA109 cells. It is filed as functional, cell-based. Particulars: ECa-109.
The test system of the next test is HCT-116. The test is described as follows: Cytotoxicity against human HCT116 cells. The format is functional, cell-based.
The target in test [4] is Fibroblast growth factor receptor 2 (Homo sapiens) (UniProt P21802). The test is described as follows: Inhibition of FGFR2 (unknown origin) at 50 uM.
In test [5] the test system is A549. The test is described as follows: Induction of apoptosis in human A549 cells at 5 uM after 72 hrs by flow cytometry. It is filed as functional. For orientation: A flow cytometer gives signals particle by particle.
Test [6] deals with HUVEC. The test is described as follows: Antiangiogenic activity in HUVEC assessed as reduction in tube formation by matrigel assay. It is filed as functional, cell-based. Particulars: Homo sapiens.
Test [7] deals with HUVEC. The test is described as follows: Antiangiogenic activity in HUVEC assessed as reduction in anastomoses formation by matrigel assay. The format is functional, cell-based. Particulars: Homo sapiens.
Test [8] concerns A549. The test is described as follows: Induction of apoptosis in human A549 cells assessed as DNA fragmentation at 1.25 to 5 uM after 72 hrs by flow cytometry. The format is functional, cell-based.
Test [9] deals with A549. The test is described as follows: Induction of apoptosis in human A549 cells assessed as hypodiploid DNA at 5 uM after 72 hrs by flow cytometry. It is filed as functional, cell-based.
Test [10] relates to A549. The test is described as follows: Cell cycle arrest in human A549 cells assessed as accumulation at sub-G0/G1 phase at 5 uM after 72 hrs by flow cytometry. The format is functional.
Test [11] deals with HUVEC. The test is described as follows: Antimigratory activity in HUVEC at 2 uM. It is filed as functional, cell-based. Particulars: Homo sapiens.

Chain of Fibroblast growth factor receptor 2 (Homo sapiens) (P21802 22-821 limits assumed): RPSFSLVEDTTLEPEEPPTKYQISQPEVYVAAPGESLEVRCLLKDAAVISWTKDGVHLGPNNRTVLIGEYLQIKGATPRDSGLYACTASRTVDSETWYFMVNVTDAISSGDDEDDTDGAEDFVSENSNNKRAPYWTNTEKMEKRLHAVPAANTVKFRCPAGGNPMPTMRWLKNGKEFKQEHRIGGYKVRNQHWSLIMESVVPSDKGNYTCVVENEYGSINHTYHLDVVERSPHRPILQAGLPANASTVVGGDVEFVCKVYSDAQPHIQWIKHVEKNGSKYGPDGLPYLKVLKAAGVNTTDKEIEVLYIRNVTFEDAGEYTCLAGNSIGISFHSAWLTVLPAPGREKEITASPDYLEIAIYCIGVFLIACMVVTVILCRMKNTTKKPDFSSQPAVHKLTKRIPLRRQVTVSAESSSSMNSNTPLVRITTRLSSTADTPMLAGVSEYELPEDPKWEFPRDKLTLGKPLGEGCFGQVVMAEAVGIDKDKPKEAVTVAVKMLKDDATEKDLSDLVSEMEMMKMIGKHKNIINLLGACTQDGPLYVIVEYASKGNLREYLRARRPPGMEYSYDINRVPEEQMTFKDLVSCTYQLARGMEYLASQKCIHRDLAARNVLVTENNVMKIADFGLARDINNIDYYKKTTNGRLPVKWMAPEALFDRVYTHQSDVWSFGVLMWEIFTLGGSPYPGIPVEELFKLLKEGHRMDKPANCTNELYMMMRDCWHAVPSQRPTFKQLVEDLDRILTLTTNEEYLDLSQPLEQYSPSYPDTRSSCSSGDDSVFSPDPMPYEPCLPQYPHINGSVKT

For `CCN(CC)CCNC(=O)c1c(C)[nH]c(/C=C2\C(=O)Nc3ccc(/C=C/S(C)(=O)=O)cc32)c1C`, the IC50 in the test on A549 [1] is 29.1 µM; in [2], 16.7 µM; in test [3], 12.5 µM; in the test with HCT-116, 2.64 µM.
For `CCN(CC)CCNC(=O)c1c(C)[nH]c(/C=C2\C(=O)Nc3ccc(/C=C/S(=O)(=O)Cc4ccc(F)cc4)cc32)c1C` the same measures were greater than 12.5 µM, greater than 12.5 µM, greater than 12.5 µM and greater than 12.5 µM.
For `CCN(CC)CCCNC(=O)c1c(C)[nH]c(/C=C2\C(=O)Nc3ccc(/C=C/S(=O)(=O)c4ccc(F)cc4)cc32)c1C` the same measures were greater than 12.5 µM, 3.45 µM, 4.75 µM and 5.77 µM.
For `CCN(CC)CCNC(=O)c1c(C)[nH]c(/C=C2\C(=O)Nc3ccc(/C=C/S(=O)(=O)Cc4cccc(F)c4)cc32)c1C` the same measures were 8.41 µM, 11.1 µM, 7.33 µM and 12.7 µM.
Consider `CCN(CC)CCNC(=O)c1c(C)[nH]c(/C=C2\C(=O)Nc3ccc(/C=C/S(=O)(=O)Cc4ccccc4)cc32)c1C`, for which the IC50 in the test with A549 [1] is 8.05 µM; in [2], 14.5 µM; in test [3], 10.6 µM; in the test on HCT-116, 13.7 µM.
In the case of `Cc1[nH]c(/C=C2\C(=O)Nc3ccc(/C=C/S(=O)(=O)c4ccc(F)cc4)cc32)c(C)c1C(=O)NCCCN(C)C`, the IC50 with A549 [1] was greater than 12.5 µM; in test [2], 6.35 µM; in [3], 2.87 µM; in the test with HCT-116, 9.84 µM.
For `CCN(CC)CCNC(=O)c1c(C)[nH]c(/C=C2\C(=O)Nc3ccc(F)cc32)c1C` [SUNITINIB], the concentration for half-maximal inhibition (IC50) with A549 [1] came to 18.6 µM; in test [2], 18.6 µM; in test [3], 16.9 µM; in the test on HCT-116, 2.11 µM. This compound had an inhibition in test [4] of 61.8%. Further, the figures for the Activity in the test on A549 [5], with HUVEC [6] and in the test on HUVEC [7] were 15.81%, “Dose-dependent effect” and “Dose-dependent effect”, respectively.
On to `CCN(CC)CCNC(=O)c1c(C)[nH]c(/C=C2\C(=O)Nc3ccc(S(=O)(=O)/C=C/c4ccc(Cl)cc4)cc32)c1C`, for which the IC50 in the test on A549 [1] is 2.85 µM; in test [2] it was 2.58 µM; in test [3], 4.84 µM; with HCT-116, 1.95 µM. In test [4], this compound showed an inhibition of 72%.
For the compound `Cc1[nH]c(/C=C2\C(=O)Nc3ccc(/C=C/S(=O)(=O)c4ccc(F)cc4)cc32)c(C)c1C(=O)NCCN(C)C`, the IC50 came to 6.62 µM with A549 [1], 6.25 µM in test [2], 2.99 µM in test [3] and 7.2 µM in the test on HCT-116.
In the case of `CCN(CC)CCNC(=O)c1c(C)[nH]c(/C=C2\C(=O)Nc3ccc(/C=C/S(=O)(=O)c4ccc(Br)cc4)cc32)c1C`, the IC50 in the test with A549 [1] worked out at 5.21 µM; in test [2], 2.28 µM; in test [3], 6.23 µM; in the test with HCT-116 it was 3.35 µM. For the same compound, in test [4], the inhibition worked out at 67.8%.
With `CCN(CC)CCNC(=O)c1c(C)[nH]c(/C=C2\C(=O)Nc3ccc(S(=O)(=O)/C=C/c4ccccc4)cc32)c1C`, the half-inhibitory concentration (IC50) in the test with A549 [1] was found to be 2.87 µM; in test [2], 4.99 µM; in test [3], 1.37 µM; with HCT-116, 2.41 µM.
Regarding `CCN(CC)CCNC(=O)c1c(C)[nH]c(/C=C2\C(=O)Nc3ccc(/C=C/S(=O)(=O)c4ccc(F)cc4)cc32)c1C`, the inhibition result in the test on A549 [1] is “Dose-dependent effect”; in [4] it was 76.6%. The IC50 in test [2] was 6.87 µM; in test [3], 5.74 µM; in the test on HCT-116, 1.82 µM. Also, the result in the test on A549 [8], in the test on A549 [9] and in the test with HUVEC [11] was Active. The Activity in the test with A549 [10] is 68.21%; in the test with HUVEC [6], “Dose-dependent effect”; with HUVEC [7], “Dose-dependent effect”.
Consider `CCN(CC)CCNC(=O)c1c(C)[nH]c(/C=C2\C(=O)Nc3ccc(/C=C/S(=O)(=O)Cc4ccc(Cl)cc4)cc32)c1C`, for which the IC50 was greater than 25.3 µM in the test with A549 [1], greater than 25 µM in [2], greater than 25 µM in [3] and greater than 25 µM with HCT-116.
As to `CCN(CC)CCNC(=O)c1c(C)[nH]c(/C=C2\C(=O)Nc3ccc(/C=C/S(=O)(=O)c4ccccc4)cc32)c1C`, the IC50 in the test with A549 [1] worked out at 6.86 µM; in test [2], 5.82 µM; in test [3] it was 2.7 µM; with HCT-116, 6.44 µM.
For `O=c1c(O)c(-c2ccc(O)c(O)c2)oc2cc(O)cc(O)c12`, the inhibition in [4] was determined as 67.3%.
